Measurements as given in ChEMBL document CHEMBL1142235, “Pharmacokinetics and safety of indinavir in human immunodeficiency virus-infected pregnant women” (Antimicrob Agents Chemother, 2007).

Experiments:
[1] = Cmax in HIV1 infected pregnant woman during antepartum period at 800 mg three times/day; assay type: ADME, organism-based; design: dose 800 mg; details: female, human, in vivo
[2] = Cmax in HIV1 infected pregnant woman during postpartum period at 800 mg three times/day; assay type: ADME, organism-based; design: dose 800 mg; details: female, human, in vivo
[3] = Tmax in HIV1 infected pregnant woman during antepartum period at 800 mg three times/day; assay type: ADME, organism-based; details: female, human, in vivo
[4] = Tmax in HIV1 infected pregnant woman during postpartum period at 800 mg three times/day; assay type: ADME, organism-based; details: female, human, in vivo
[5] = Oral clearance in HIV1 infected pregnant woman during postpartum period at 800 mg three times/day; assay type: ADME, organism-based; details: female, human, in vivo
Homo sapiens [6] = species on record: Homo sapiens; experiment: AUC (0-8 hrs) in HIV1 infected pregnant woman during antepartum period at 800 mg three times/day; assay type: ADME, organism-based, Plasma; design: dose 800 mg, time < 8 hr; details: in vivo
Homo sapiens [7] = species on record: Homo sapiens; experiment: Oral clearance in HIV1 infected pregnant woman during antepartum period at 800 mg three times/day; assay type: ADME, organism-based; details: in vivo
[8] = AUC (0-8 hrs) in HIV1 infected pregnant woman during postpartum period at 800 mg three times/day; assay type: ADME, organism-based; design: dose 800 mg, time < 8 hr; details: female, human, plasma

## CC(C)(C)NC(=O)[C@@H]1CN(Cc2cccnc2)CCN1C[C@@H](O)C[C@@H](Cc1ccccc1)C(=O)N[C@H]1c2ccccc2C[C@H]1O.O [INDINAVIR]
[1]
  Cmax: 4370 ng/mL
[2]
  Cmax: 9270 ng/mL
[3]
  Tmax: 1.85 h
[4]
  Tmax: 1.88 h
[5]
  CL/F: 697 mL/min
Homo sapiens [6]
  AUC: 459 µg·min/mL
Homo sapiens [7]
  CL/F: 3558 mL/min
[8]
  AUC at 8 h: 23800 ng·h/mL
